# Experimental data published in patent US20240209325A1, “CANCER PROPHYLAXIS AND THERAPY USING TARGETED VIRAL NANOPARTICLES” (priority 2021, published 2024).
# “Also recorded” adds a separate entry of the source.
# T1: S100A9 (Mus musculus, UniProt P31725)
# T1 construct: confocal imaging of tumor-bearing lungs sections was performed; from tissue; host or cells: lungs of B16F10-inoculated C57BL/6 mice
# T1 sequence (P31725 1-113): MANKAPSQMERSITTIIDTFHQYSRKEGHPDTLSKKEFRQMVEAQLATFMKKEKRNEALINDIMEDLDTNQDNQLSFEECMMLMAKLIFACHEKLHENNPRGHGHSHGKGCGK
# T2: S100A9 (Homo sapiens, UniProt P06702)
# T2 sequence (P06702 1-114): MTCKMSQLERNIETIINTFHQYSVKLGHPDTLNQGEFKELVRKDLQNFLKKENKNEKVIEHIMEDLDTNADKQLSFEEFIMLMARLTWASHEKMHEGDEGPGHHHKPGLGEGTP
# T3: CPMV-Cy5-PEG (cowpea mosaic virus nanoparticle without targeting peptide) (Cowpea mosaic virus, UniProt P03599 460-833; P03599 834-1022)
# T3 sequence 1: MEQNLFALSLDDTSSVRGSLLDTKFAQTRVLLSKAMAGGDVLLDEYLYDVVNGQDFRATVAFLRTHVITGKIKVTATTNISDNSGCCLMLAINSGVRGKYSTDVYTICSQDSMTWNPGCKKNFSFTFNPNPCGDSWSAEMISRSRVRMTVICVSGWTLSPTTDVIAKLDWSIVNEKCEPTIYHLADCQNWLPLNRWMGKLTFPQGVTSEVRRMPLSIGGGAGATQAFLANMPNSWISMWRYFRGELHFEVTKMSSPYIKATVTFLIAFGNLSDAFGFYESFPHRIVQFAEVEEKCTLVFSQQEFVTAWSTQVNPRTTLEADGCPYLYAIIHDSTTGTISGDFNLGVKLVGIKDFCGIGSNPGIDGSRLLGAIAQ
# T3 sequence 2: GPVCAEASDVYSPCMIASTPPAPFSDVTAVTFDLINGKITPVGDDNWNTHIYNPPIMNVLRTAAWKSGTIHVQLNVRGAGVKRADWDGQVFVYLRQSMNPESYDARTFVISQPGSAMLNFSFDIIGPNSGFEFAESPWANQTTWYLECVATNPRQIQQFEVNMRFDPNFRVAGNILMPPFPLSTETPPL
# Experiments:
# [1] = Biodistribution of Cy5-labeled CPMV and CCMV particles after i.v. injection (ex vivo IVIS); settings: for accumulation/clearance in liver (share of fluorescence signal): Cy5-labeled particles, 200 μg i.v., organs harvested after 24 h; for lung homing (in words): healthy and B16F10 tumor-bearing mice, i.v., 24 h
# Method: Healthy and B16F10 metastatic tumor-bearing C57BL/6 female mice were used for biodistribution studies of the Cy5-labeled CPMV and CCMV from Section 2. B16F10 cells (200,000 cells/mouse) were administered i.v. and the tumors were matured for one week. […] After 24 hours, the lungs were harvested and then imaged and quantified for fluorescence using the IVIS (Xenogen).
# Both healthy and B16F10 tumor-bearing mice were injected with native and H6/G3-conjugated CPMV and CCMV; to enable tracking the nanoparticles were labeled with Cy5. Lungs and other organs were harvested 24 h following intravenous (i.v.) nanoparticle injection and imaged ex vivo to observe localization of the nanoparticles in the lungs, spleen, kidney, and liver (FIG. 3A).
# [2] = biological target: T1, S100A9; assay: Confocal imaging of co-localization with S100A9 in tumor-bearing lung sections; format: in vivo, B16F10-inoculated mice
# Method: After 6 h, mice were sacrificed and briefly perfused with 10 ml of PBS. The harvested lungs were embedded in OCT medium (Fisher Healthcare) and frozen using liquid nitrogen. They were sliced into 10 μm thick sections and mounted on microscope glass slides for immunofluorescence staining. OCT residue was removed using PBS. The tissue sections were blocked with 10% (w/v) bovine serum albumin (BSA) in PBS for 1 h and washed with PBS. Staining was accomplished with a-S100A9 (1:100 dilution, R&D systems, AF2065) and fluorescently-labeled secondary PE a-goat IgG (1:20 dilution) antibodies prepared in 1% (v/v) BSA. The stained tissue samples were mounted on Fluoroshield™ with DAPI for confocal microscopy.
# To investigate the co-localization of the CPMV particles with S100A9, confocal imaging of tumor-bearing lungs sections was performed.
# [3] = test system: B16F10 melanoma cells; assay: B16F10 i.v. challenge to CPMV and CCMV pre-treated mice (prophylaxis); format: in vivo, C57BL/6J mice
# Source text: After 7 days, the mice were challenged by i.v. administration of 200,000 B16F10 melanoma cells per mouse. Lungs were harvested at day 21 (day 14 after tumor inoculation) and fixed in a 10% (v/v) neutral-buffered formalin solution overnight. Following fixation, the lungs were stored in 70% (v/v) ethanol (EtOH), and the number of tumor nodules per lung was manually counted.
# After tumor nodule counting, the fixed lung samples were submitted to the La Jolla Institute for Immunology for hematoxylin and eosin (H&E) staining and imaging. Paraffin-embedded blocks were sectioned at 4 μm on a Leica RM2125 RTS microtome. The sections were then floated on a 42° C. tissue flotation bath and mounted onto Fisher Superfrost Plus microscope slides and subjected to H&E staining. Scanning was accomplished using a ZEISS AxioScan Z1 using a 20× objective. The ratio of tumor cells to total cells was measured from the histology slides using QuPath software^68.
# To investigate the suitability of S100A9-targeted VNPs to serve as a prophylactic immunotherapy preventing manifestation of lung metastasis, we used a lung metastasis mouse model using C57BL/6J mice i.v. challenged with B16F10 melanoma cells. C57BL/6J mice were pre-exposed to the CPMV (therapeutic) and CCMV (control) nanoparticles with and without the H6/G3 targeting ligands, one week before being challenged i.v. with B16F10 melanoma cells (FIG. 4A). Lungs were harvested 2 weeks post tumor challenge, and tumor nodules were manually counted. […] This experiment was repeated one more time with only the CPMV particles as well as the H6 peptide only control (FIG. 4D).
# [4] = test system: 4T1-Luc cells; assay: 4T1-Luc i.v. challenge to CPMV pre-treated mice (prophylaxis); format: in vivo, Balb/c mice
# Method: After 5 days, the mice were challenged by i.v. injection of 200,000 4T1-Luc cells. The mice were imaged with the IVIS using luminescent imaging every 3 days by injecting intraperitoneally (i.p.) 150 mg/kg of body weight D-luciferin. ROI measurements were taken through the Living Image 3.0 software. The weight of the mice was also tracked every 3 days. After 25 days (20 days after tumor inoculation), the lungs were collected and fixed in Bouin's solution for 3 days. Each tumor nodule on the lungs was counted manually and averaged between the mice in each group.
# To determine whether the prophylactic effect of S100A9-targeted CPMV could be replicated in other tumor models, we first exposed Balb/C mice to CPMV and S100A9-targeted CPMV by i.v. injection, and then challenged mice with luciferase-labeled 4T1 (4T1-Luc) cells. This experimental lung metastatic model mimics metastatic triple negative breast cancer (TNBC). Tumor cell challenge was carried out 5 days post CPMV exposure (FIG. 4G). […] By day 21, all the mice in the PBS treatment group had to be sacrificed due to significant weight loss (FIG. 12B). […] The lungs were harvested after 25 days and fixed in Bouin's solution before manual counting of tumor nodules (FIG. 4H, FIG. 4I). […] There was no significant difference between the CPMV and the CPMV-G3.
# [5] = test system: 4T1-Luc cells; assay: Treatment of 4T1-Luc lung metastasis (immunotherapy); format: in vivo, Balb/c mice; settings: 200 μg i.v. 3 days post tumor inoculation
# Method: 4T1-luc cells (100,000/mouse) were injected i.v. into female Balb/c mice (n=15). […] Tumor growth was monitored by total bioluminescence imaging based on the i.p. injection of 150 mg/kg of body weight D-luciferin. Total bioluminescence was determined using the Living Image 3.0 software, and ROI were quantified as average counts.
# A representative IVIS image on day 9 is shown in FIG. 5E while further imaging can be found in FIG. 13. […] The unabated tumor growth led to the mice in the PBS and CPMV groups all dying within 15 days or reaching their clinical endpoints before being sacrificed (FIG. 13B).
# [6] = test system: RAW-Blue cells: Toll-like receptor (TLR) and NOD stimulation; assay: RAW-Blue immunogenicity assay (SEAP, QUANTI-Blue); format: cell-based; settings: for immunogenicity, activation of NF-κB and AP-1, CPMV compared to CCMV (in words): FIG. 6B, 0.5 μg, 18 hours per method
# Method: The immunogenicity of CPMV and CCMV was compared through a RAW-Blue™ assay (Invivogen). Briefly, 100,000 RAW-Blue™ cells/well were incubated with 0.5 μg of CPMV and CCMV, 50 EU mL-1 E. coli endotoxin standard control (ThermoScientific), or culture media for 18 hours. Toll-like receptor (TLR) and nucleotide-binding oligomerization domain (NOD) stimulation was assessed by measuring the levels of secreted embryonic alkaline phosphatase (SEAP) using a QUANTI-Blue™ (Invivogen) assay. Absorbance was measured at 655 nm using a Tecan microplate reader.
# The immunogenicity between CPMV and its peptide-conjugated counterparts was also assessed using a RAW-Blue™ assay. […] A QUANTI-Blue™ assay was run like before, and absorbance was measured at 655 nm.
# [7] = test system: innate immune cells in the lungs (DCs, neutrophils, macrophages); assay: Flow cytometry of innate immune cell profile in lungs; format: in vivo, C57BL/6 mice; settings: 200 μg i.v., lungs after 24 h; FACS (FIG. 6C)
# Method: Lungs were harvested after 24 hours. Harvested organs were each placed in separate gentle MACS C tubes (Miltenyi Biotec) and dissociated with enzymatic solutions (lung dissociation kits, Miltenyi Biotec). The C tube lid was tightly screwed, inverted, and inserted in a gentleMACS dissociator (Militenyi Biotec). Organs were minced and digested on appropriate gentleMACS programs. After digestion, cells were passed through 40 μm pore size strainers and centrifuged at 500 g for 5 min. The cell pellet was resuspended in 5 mL of 1× RBC lysis solution (eBioscience) and incubated at RT for 2 min, followed by the addition of RPMI-1640 medium to stop lysis. Cells were centrifuged again at 500 g for 5 min and resuspended in PBS with 1% BSA and 2 mM EDTA (FACS solution). Total cell count and viability were found using trypan blue solution (Sigma-Aldrich) and a Countess™ automated cell counter (Invitrogen). Cell concentrations were adjusted to 1.0×10^7 cells/mL.
# To reduce background staining of antibodies, 0.25 μg of purified rat anti-mouse CD16/32 (Biolegend) was added to 100 μL cell suspensions before adding to the conjugated antibodies. Cells were incubated at RT for ten minutes prior to immunofluorescence staining. All antibodies for immunofluorescence staining were purchased from Biolegend and diluted in FACS solution according to the manufacturer's recommendation. […]
# [8] = biological target: T2, S100A9; settings: peptides that target or recognize and bind S100A9; screening described in Park et al. 2021; cited from earlier work
# [9] = biological target: T3, CPMV-Cy5-PEG (cowpea mosaic virus …); assay: confocal imaging of tumor-bearing mouse lung sections after i.v. injection of the particles, S100A9 stained with antibody
molecule,measurement,setting,value
Cowpea mosaic virus [CPMV],accumulation/clearance in liver (share of fluorescence signal),[1],75%
same,lung homing (in words),[1],do not home to the lungs; also recorded: did not accumulate in the lungs
same,association/co-localization with S100A9 (in words),[2],no association with S100A9
same,reduction of the ratio of tumor:total cells,"[3]; H&E lung histology, QuPath (FIG. 4F)",1.7 fold
same,decrease of tumor nodules (tumor burden) in the lungs compared to PBS,"[3]; first study (FIG. 4C), 200 μg i.v. 7 days before challenge, lungs 2 weeks post challenge",2.1 fold
same,reduction of tumor nodules compared to PBS,[3]; repeated experiment (FIG. 4D),1.7 fold
same,decrease in tumor nodules compared to PBS,"[4]; 225 μg i.v. 5 days before challenge, lungs harvested after 25 days",10.6 fold
same,tumor growth by luminescent imaging (in words),"[4]; IVIS every 3 days, up to day 21",no signs of tumor growth by day 21
same,side effects (in words),[4]; throughout the experiment,no apparent side effects were observed
same,weight of the mice (in words),[4]; tracked every 3 days throughout the experiment,stayed fairly consistent
same,time by which all mice died or reached clinical endpoints,[5],≤ 15 days
same,tumor burden / tumor growth by bioluminescence (in words),[5],significant tumor burden; also recorded: unable to slow 4T1-Luc tumor growth
same,TLR and/or NOD agonism / immunostimulation (in words),"[6]; CPMV, peptide-conjugated CPMV and peptides only, 10 μg, 24 h (FIG. 6A)",strong TLR and/or NOD agonists
same,"immunogenicity, activation of NF-κB and AP-1, CPMV compared to CCMV (in words)",[6],much more immunogenic compared to CCMV; also recorded: higher level of activation; also recorded: immunostimulated by CPMV
same,immune cell recruitment and activation in the lungs (in words),[7],did not produce a significant impact
cowpea chlorotic mottle virus [CCMV],accumulation/clearance in liver (share of fluorescence signal),[1],75%
same,lung homing (in words),[1],does not home to the lungs
same,effect on tumor burden in the lungs (in words),"[3]; first study (FIG. 4C), compared to PBS",This effect was not seen
same,"immunogenicity, activation of NF-κB and AP-1, CPMV compared to CCMV (in words)",[6],immunostimulated by CPMV and not CCMV
"peptide that binds S100A9, ACNSHRHGACGGGS (SEQ ID NO: 12) [MTP5]",Kd,[8],67.6 µM
"peptide that binds S100A9, ACNSVHQHHCGGGS (SEQ ID NO: 13) [MTP6]",Kd,[8],39.6 µM
"peptide that binds S100A9, ASSHIHHGGGS (SEQ ID NO: 10) [MTP2]",Kd,[8],77.6 µM
"peptide that binds S100A9, HNHMADPGGGS (SEQ ID NO: 11) [MTP3]",Kd,[8],117 µM
scrambled control peptide MDPHAHNGGGS (SEQ ID NO: 16) [reference compound],KD,[8],no binding
"S100A9 (S100 calcium-binding protein A9), endogenous, in lung sections of B16F10 tumor-bearing C57BL/6 mice (other, also called MRP14; calgranulin B) ANKAPSQMERSITTIIDTFHQYSRKEGHPDTLSKKEFRQMVEAQLATFMKKEKRNEALINDIMEDLDTNQDNQLSFEECMMLMAKLIFACHEKLHENNPRGHGHSHGKGCGK",binding result,[9],no binding
